Test results as given in the NIST ThermoML archive (doi:10.1021/je040006u).
Numbers after ± are expanded uncertainties.

Test: xn = mol fraction of the nth substance listed
Settings: 101.3 kPa, Liquid, Pycnometric method

CCCNCCC [dipropylamine] + COCCO
mass density [kg/m3]
Settings	291.15 K	293.15 K	298.15 K	303.15 K	308.15 K
x2 = 0	738.47 ± 2	737.2 ± 2	732.56 ± 2	728.2 ± 2	723.64 ± 2
x2 = 0.0501	746.83 ± 2	745.26 ± 2.1	740.37 ± 2.1	735.86 ± 2.1	731.07 ± 2
x2 = 0.1	754.98 ± 2.1	753.42 ± 2.1	748.52 ± 2.1	743.91 ± 2.1	739.04 ± 2.1
x2 = 0.1502	763.4 ± 2.1	761.9 ± 2.1	756.9 ± 2.1	752.27 ± 2.1	747.36 ± 2.1
x2 = 0.2001	772.06 ± 2.1	770.51 ± 2.1	765.5 ± 2.1	760.85 ± 2.1	755.94 ± 2.1
x2 = 0.2508	781.14 ± 2.1	779.61 ± 2.2	774.59 ± 2.2	769.92 ± 2.1	764.98 ± 2.1
x2 = 0.2999	790.26 ± 2.2	788.66 ± 2.2	783.68 ± 2.2	778.97 ± 2.2	774.07 ± 2.2
x2 = 0.3502	799.92 ± 2.2	798.35 ± 2.2	793.28 ± 2.2	788.57 ± 2.2	783.65 ± 2.2
x2 = 0.4	809.92 ± 2.2	808.21 ± 2.2	803.2 ± 2.2	798.45 ± 2.2	793.51 ± 2.2
x2 = 0.45	820.34 ± 2.3	818.67 ± 2.3	813.61 ± 2.3	808.82 ± 2.2	803.85 ± 2.2
x2 = 0.4999	831.06 ± 2.3	829.4 ± 2.3	824.3 ± 2.3	819.53 ± 2.3	814.5 ± 2.3
x2 = 0.5507	842.47 ± 2.3	840.75 ± 2.3	835.6 ± 2.3	830.8 ± 2.3	825.78 ± 2.3
x2 = 0.5982	853.45 ± 2.4	851.69 ± 2.4	846.6 ± 2.4	841.77 ± 2.3	836.69 ± 2.3
x2 = 0.6502	866.02 ± 2.4	864.26 ± 2.4	859.11 ± 2.4	854.24 ± 2.4	849.17 ± 2.4
x2 = 0.6999	878.41 ± 2.4	876.59 ± 2.4	871.47 ± 2.4	866.58 ± 2.4	861.5 ± 2.4
x2 = 0.7489	891.21 ± 2.5	889.34 ± 2.5	884.21 ± 2.5	879.3 ± 2.4	874.18 ± 2.4
x2 = 0.8015	905.66 ± 2.5	903.7 ± 2.5	898.54 ± 2.5	893.64 ± 2.5	888.51 ± 2.5
x2 = 0.8496	919.22 ± 2.6	917.32 ± 2.5	912.15 ± 2.5	907.23 ± 2.5	902.13 ± 2.5
x2 = 0.8997	934.42 ± 2.6	932.35 ± 2.6	927.21 ± 2.6	922.3 ± 2.5	917.11 ± 2.5
x2 = 0.9497	950.19 ± 2.6	948.22 ± 2.6	943.1 ± 2.6	938.3 ± 2.6	933.24 ± 2.6
